Test results: ChEMBL document CHEMBL1152063, “4-Substituted proline derivatives that inhibit angiotensin converting enzyme and neutral endopeptidase 24.11” (Bioorg Med Chem Lett, 1994)

Legend:
Neprilysin = target: T1, Neprilysin (Rattus norvegicus, UniProt P07861); experiment: In vitro inhibition against neutral endopeptidase 24.11 (NEP) in rat kidney cortex membrane; assay type: cell membranes
T1 sequence (P07861 whole entry): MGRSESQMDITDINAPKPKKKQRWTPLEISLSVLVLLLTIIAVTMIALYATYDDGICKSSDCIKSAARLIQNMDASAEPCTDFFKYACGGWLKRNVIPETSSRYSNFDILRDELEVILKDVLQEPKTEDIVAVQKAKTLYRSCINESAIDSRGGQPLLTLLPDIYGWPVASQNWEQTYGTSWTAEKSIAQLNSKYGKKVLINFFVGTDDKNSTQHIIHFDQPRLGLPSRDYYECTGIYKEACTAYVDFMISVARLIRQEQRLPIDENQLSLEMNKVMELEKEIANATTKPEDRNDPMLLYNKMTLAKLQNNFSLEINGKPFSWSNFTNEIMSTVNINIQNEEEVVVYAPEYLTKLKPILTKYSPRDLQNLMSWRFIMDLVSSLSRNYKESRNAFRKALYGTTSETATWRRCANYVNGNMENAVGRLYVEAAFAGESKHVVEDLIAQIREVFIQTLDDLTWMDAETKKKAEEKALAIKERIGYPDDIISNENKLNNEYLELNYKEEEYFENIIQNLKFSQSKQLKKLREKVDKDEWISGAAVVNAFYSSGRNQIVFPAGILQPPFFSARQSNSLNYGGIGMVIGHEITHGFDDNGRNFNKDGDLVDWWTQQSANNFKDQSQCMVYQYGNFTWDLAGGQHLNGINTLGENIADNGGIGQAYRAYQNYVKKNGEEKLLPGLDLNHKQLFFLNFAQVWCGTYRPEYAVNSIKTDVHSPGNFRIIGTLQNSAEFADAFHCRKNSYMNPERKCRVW

[1] = target: Angiotensin-converting enzyme (Homo sapiens, UniProt P12821); experiment: In vitro inhibition against angiotensin converting enzyme (ACE)
Chain of Angiotensin-converting enzyme (P12821 whole entry): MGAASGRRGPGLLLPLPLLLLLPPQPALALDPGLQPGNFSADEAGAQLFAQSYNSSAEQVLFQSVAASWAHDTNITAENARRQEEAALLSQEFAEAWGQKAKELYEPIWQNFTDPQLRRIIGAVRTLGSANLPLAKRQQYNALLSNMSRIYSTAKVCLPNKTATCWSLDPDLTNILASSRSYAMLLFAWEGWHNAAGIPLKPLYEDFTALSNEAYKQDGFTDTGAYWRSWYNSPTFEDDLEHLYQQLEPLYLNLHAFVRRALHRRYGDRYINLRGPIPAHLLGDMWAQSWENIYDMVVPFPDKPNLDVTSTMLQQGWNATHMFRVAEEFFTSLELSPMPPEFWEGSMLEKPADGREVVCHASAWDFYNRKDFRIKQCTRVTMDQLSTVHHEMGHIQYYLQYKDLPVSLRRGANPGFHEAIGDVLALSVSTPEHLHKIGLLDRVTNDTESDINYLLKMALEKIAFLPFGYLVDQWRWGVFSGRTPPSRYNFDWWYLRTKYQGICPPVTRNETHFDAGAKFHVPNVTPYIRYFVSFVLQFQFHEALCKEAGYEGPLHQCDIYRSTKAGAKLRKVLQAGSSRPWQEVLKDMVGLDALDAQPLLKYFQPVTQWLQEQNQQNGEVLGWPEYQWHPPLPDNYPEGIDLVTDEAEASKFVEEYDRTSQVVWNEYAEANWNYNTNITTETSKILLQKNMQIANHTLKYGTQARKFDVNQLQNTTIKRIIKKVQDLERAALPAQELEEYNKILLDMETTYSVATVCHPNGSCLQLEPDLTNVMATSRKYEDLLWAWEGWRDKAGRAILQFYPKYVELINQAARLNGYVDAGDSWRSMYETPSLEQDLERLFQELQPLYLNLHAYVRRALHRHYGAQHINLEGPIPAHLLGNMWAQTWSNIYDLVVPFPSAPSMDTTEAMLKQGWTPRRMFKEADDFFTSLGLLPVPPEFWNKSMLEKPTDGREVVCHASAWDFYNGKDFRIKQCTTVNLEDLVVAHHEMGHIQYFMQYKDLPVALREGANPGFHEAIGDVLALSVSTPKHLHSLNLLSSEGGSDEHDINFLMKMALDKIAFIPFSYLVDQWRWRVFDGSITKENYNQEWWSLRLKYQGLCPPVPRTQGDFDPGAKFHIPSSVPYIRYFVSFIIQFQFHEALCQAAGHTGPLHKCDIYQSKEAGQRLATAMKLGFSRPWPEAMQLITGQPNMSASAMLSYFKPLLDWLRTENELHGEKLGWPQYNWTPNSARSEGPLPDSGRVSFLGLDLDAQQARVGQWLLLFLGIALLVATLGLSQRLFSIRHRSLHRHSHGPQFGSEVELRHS

Ki (Neprilysin)	IC50 [1]	IC50 (Neprilysin)	SMILES
26 nM	–	–	O=C(O)CCCCCCNC(=O)C(CS)Cc1ccccc1 (configuration not stated)
–	696 nM	20 nM	C[C@H](CS)C(=O)N1C[C@@H](NC(=O)C(CS)Cc2ccc(-c3ccccc3)cc2)C[C@H]1C(=O)O (some centres not stated)
–	43 nM	1240 nM	C[C@H](N[C@@H](CCc1ccccc1)C(=O)O)C(=O)N1C[C@@H](NC(=O)NC(CS)Cc2ccccc2)C[C@H]1C(=O)O (some centres not stated)
–	18 nM	849 nM	C[C@H](CS)C(=O)N1C[C@H](NC(=O)C(CS)Cc2ccccc2)C[C@H]1C(=O)O (some centres not stated)
–	506 nM	> 1000 nM	C[C@H](N[C@@H](CCc1ccccc1)C(=O)O)C(=O)N1C[C@H](OC(=O)NC(CS)Cc2ccccc2)C[C@H]1C(=O)O (some centres not stated)
–	147 nM	118 nM	C[C@H](CS)C(=O)N1C[C@@H](NC(=O)NC(CS)Cc2ccccc2)C[C@H]1C(=O)O (some centres not stated)
–	87 nM	14 nM	C[C@H](CS)C(=O)N1C[C@@H](NC(=O)C(CS)Cc2ccccc2)C[C@H]1C(=O)O (some centres not stated)
–	253 nM	> 1000 nM	C[C@H](N[C@@H](CCc1ccccc1)C(=O)O)C(=O)N1C[C@H](NC(=O)C(CS)Cc2ccccc2)C[C@H]1C(=O)O (some centres not stated)
–	42 nM	149 nM	C[C@H](N[C@@H](CCc1ccccc1)C(=O)O)C(=O)N1C[C@@H](NC(=O)C(CS)Cc2ccccc2)C[C@H]1C(=O)O (some centres not stated)
